{
  "source": "patent US8513227B2",
  "about": "“Inhibition of inflammatory cytokine production with tanshinones” (The Feinstein Institute for Medical Research, priority 2006, dated 2013)",
  "key": {"[1]": {"test_system": "sepsis-induced cardiovascular dysfunction", "test": "Sepsis-induced cardiovascular dysfunction in CLP rats (radiolabeled microspheres)", "type": "in vivo, Sprague-Dawley rats", "details": "20 h after CLP", "method": "Animal models of endotoxemia and sepsis. This study was approved and performed in accordance with the guidelines for the care and use of laboratory animals at the Feinstein Institute for Medical Research, Manhasset, N.Y. Endotoxemia was induced in Balb/C mice (male, 7-8 weeks) by intraperitoneal injection of bacterial endotoxin (LPS, 15 mg/kg) as previously described (Chen et al. 2005; Wang et al. 1999; Wang et al. 2006). Sepsis was induced in male Balb/C mice (7-8 weeks, 20-25 g) or Sprague-Dawley rats (290-310 g) by cecal ligation and puncture (CLP) as previously described (Wang et al. 2006; Yang et al. 2002b). Herbal components were administered intraperitoneally into mice at indicated doses and time points, and mice were monitored for survival for up to two weeks. In parallel experiments, mice were euthanized to collect blood at 28 h (following two doses of herbal components at −0.5 and +24 h) after endotoxemia, and at 52 h (following two doses of herbal components at +24 and +48 h) after CLP.\nMeasurement of cardiac output. A radiolabeled microsphere technique was used to measure cardiac output at 20 h after CLP or sham operation as previously described (Yang et al. 2002b). Briefly, a bolus of ^141Ce-labeled microspheres (4.0 μCi, DuPont NEN, Boston, Mass.) was injected into the left ventricle, where it mixed uniformly with the oxygenated blood at the root of the aorta, and subsequently distributed via aortic blood flow to the capillary beds within each organ. The reference blood sample was withdrawn from the femoral arterial catheter (at a rate of 0.7 ml/min) with a pump (Harvard Apparatus, Holliston, Mass.), after which isotonic sodium chloride solution was infused manually to replace the volume of blood lost. At 20 h post CLP, animals were sacrificed to harvest various organs for measurement of radioactivity with an automatic gamma counter (1470 Wizard; Wallac, Gaithersburg, Md.). Cardiac output and organ blood flow were calculated according to the following equations: cardiac output=[(RBF×CT)/Cr]× 1/100 and organ blood flow=[(RBF×Ct)/Cr]× 1/100, where RBF is the reference blood sample withdrawal rate (0.7 ml/min), CT is counts per minute of total injected dose, Ct is counts per minute per gram of tissue, and Cr is counts per minute in the reference blood sample. Stroke volume (SV) and total peripheral resistance (TPR) were calculated as previously described (Yang et al. 2002b)."}, "[2]": {"test_system": "62 cytokines", "test": "Cytokine antibody array of LPS-stimulated macrophage culture medium", "type": "cell-based, murine", "method": "Cytokine antibody array. Murine cytokine antibody array (Cat. No. M0308003, RayBiotech Inc., Norcross, Ga., USA), which detects 62 cytokines on one membrane, was used to determine the profile of cytokines in the culture medium following the manufacturer's instructions. Briefly, the membranes were sequentially incubated with equal volume of cell-conditioned culture medium, primary biotin-conjugated antibody, and horseradish peroxidase-conjugated streptavidin. After exposing to X-ray film, the relative signal intensity was determined using the NIH image 1.59 software with reference to the positive controls on the membrane."}, "[3]": {"test_system": "HMGB1", "test": "Endotoxin-induced HMGB1 cytoplasmic translocation (immunocytochemistry, cell fractionation/western blot)", "type": "cell-based, murine", "method": "Immunocytochemistry and cell fractionation/western blot. At 16 h after LPS stimulation, cellular HMGB1 was immunostained with anti-HMGB1 polyclonal antibodies, and images were acquired using fluorescent microscope (Carl Zeiss Microimaging, Inc., Thomwood, N.Y.) as previously described (Chen et al. 2004; Rendon-Mitchell et al. 2003). Alternatively, localization of HMGB1 was examined by a cell fractionation/western blotting technique as previously described (Tang et al. 2006). Cell fractionation is based on differential lysis of plasma and nuclear membranes by nonionic detergent (NP-40). Briefly, after selective lysis of the plasma membrane in low salt buffer (10 mM HEPES, pH 7.9; 10 mM KCl; 0.1 mM EDTA; 0.1 mM EGTA; 1 mM DTT; 0.5 mM PMSF, 1% NP-40), the intact nuclei was collected by a quick centrifugation step (7,000 g, 1 min, 4° C.), leaving the cytoplasmic fraction in the supernatant. The nuclei pellet was resuspended in NP-40 high salt buffer (20 mM HEPES, pH 7.9; 0.4 M NaCl; 1 mM EDTA; 1 mM EGTA; 1 mM DTT; 1 mM PMSF, 1% NP-40), and briefly sonicated to generate the nuclear fraction. After fractionation, the protein content of different fractions was determined by the Bradford method, and each fraction was assayed for levels of various protein by western blotting analysis using primary antibodies specific for HMGB1, a cytoplasmic protein (βactin, Santa Cruz Biotechnology), and a nuclear protein (PCNA, BD Biosciences)."}, "[4]": {"test_system": "HMGB1", "test": "LPS-induced HMGB1 release in RAW 264.7 macrophage cultures (western blot)", "type": "cell-based, murine", "text": "Cell culture. […] Rendon-Mitchell et al. 2003). Murine macrophages were pre-cultured in RPMI 1640 medium (Gibco BRL, Grand Island, N.Y.) supplemented with 10% fetal bovine serum (FBS) and 2 mmol/L glutamine. Human peripheral blood mononuclear cells (HuPBMCs) were isolated from the blood of healthy donors (Long Island Blood Bank, Melville, N.Y.) by density gradient centrifugation through Ficoll (Ficoll-Paque PLUS, Pharmacia, Piscataway, N.J.), and cultured in RPMI 1640 supplemented with 10% heat-inactivated human serum/0.2 mM L-glutamine as previously described (Rendon-Mitchell et al. 2003). LPS stimulation. Adherent macrophages or monocytes were gently washed with, and cultured in, serum-free OPTI-MEM I medium two hours before stimulation with bacterial endotoxin (lipopolysaccharide, LPS, E. coli 0111:B4, Sigma-Aldrich). […] Rendon-Mitchell et al. 2003; Wang et al. 1999). HMGB1 western blotting analysis. The levels of HMGB1 in the culture medium or serum were determined by western blotting analysis as previously described (Chen et al. 2004; Rendon-Mitchell et al. 2003; Wang et al. 1999). The relative band intensity was quantified using NIH image 1.59 software to determine HMGB1 levels with reference to standard curves generated with purified HMGB1."}},
  "data": [
    {"smiles": "Cc1c(S(=O)(=O)[O-])oc2c1C(=O)C(=O)c1c-2ccc2c1CCCC2(C)C.[Na+]", "note": "[TSNIIA-SS, tanshinone IIA sodium sulfonate]", "values": [
      {"measurement": "heart rate", "setting": "[1]; 15 mg/kg, CLP group 378.3±25.1, n=6, p<0.05", "value": "334.1±25.8", "unit": "beats/minutes"},
      {"measurement": "total peripheral vascular resistance", "setting": "[1]; FIG. 8A", "value": "dose-dependently reduced"},
      {"measurement": "cardiac stroke volume", "setting": "[1]; FIG. 8B", "value": "significantly increased"},
      {"measurement": "cardiac output", "setting": "[1]; FIG. 8C", "value": "significantly increased"},
      {"measurement": "mean arterial blood pressure", "setting": "[1]; CLP group 106.1±4.7, n=6, p>0.05", "value": "96.4±8.7", "unit": "mm Hg"},
      {"measurement": "attenuation of LPS-induced release of IL-1α", "setting": "[2]; 100 μM, cytokine array", "value": "50±7", "unit": "%"},
      {"measurement": "attenuation of LPS-induced release of IL-12p70", "setting": "[2]; 100 μM, cytokine array", "value": "45±5", "unit": "%"},
      {"measurement": "attenuation of LPS-induced release of MCP-5", "setting": "[2]; 100 μM, cytokine array", "value": "25±5", "unit": "%"},
      {"measurement": "attenuation of LPS-induced release of platelet factor 4 (PF-4)", "setting": "[2]; 100 μM, cytokine array", "value": "35±6", "unit": "%"},
      {"measurement": "effect on release of most cytokines, including IL-6, IL-12p40/p70, KC, MCP-1, MIP-1α, MIP-1γ, MIP-2 and TNF", "setting": "[2]; 100 μM, RAW 264.7 cells or primary peritoneal macrophages", "value": "did not suppress"},
      {"measurement": "number of other cytokines whose release is not affected", "setting": "[2]; at concentrations that completely abrogate LPS-induced HMGB1 release", "value": "58 out of 62"},
      {"measurement": "levels of HMGB1 in the cytoplasmic fractions after LPS", "setting": "[3]; cell fractionation/western blot, FIG. 4B", "value": "dramatically reduced"},
      {"measurement": "effect on LPS-induced HMGB1 cytoplasmic translocation", "setting": "[3]; immunostaining 16 h post LPS, 100 μM, FIG. 4A", "value": "almost completely abrogated"},
      {"measurement": "effect on nuclear localization of HMGB1 in resting cells", "setting": "[3]; resting cells, data not shown", "value": "did not affect"},
      {"measurement": "effect on LPS-induced HMGB1 release", "setting": "[4]; 100 μM", "value": "completely abrogated"},
      {"measurement": "IC50", "setting": "[4]; RAW 264.7 cells, 16 h after LPS, western blot, estimated, read-out: estimated IC50 for LPS-induced HMGB1 release", "value": "< 5", "unit": "µM"},
      {"measurement": "inhibition of HMGB1 release on delayed addition", "setting": "[4]; added 2 to 6 h after LPS, 25 or 50 μM, HMGB1 at 16 h", "value": "significant inhibition was retained"}
    ]}
  ]
}
